Results from ChEMBL document CHEMBL1201862, “PubChem BioAssay data set” (2004).
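Step 1: Grow cells in 96-well plates. Step 2: Expose to compound for 48 hours at 5 concentrations. Step 3: Interpolate endpoints linearly; if unreached, use highest concentration. Here, GI50 denotes the concentration required for 50% inhibition of growth.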 Active and inactive are the calls of the source. Rule as the data show it: active = GI50 up to about 1.1 µM and inactive = higher.

Experiments:
Experiment in all cases: inhibition of tumour cell growth, NCI panel, 48 h
UO-31 = test system: UO-31
HCT-15 = test system: HCT-15
LOX IMVI = test system: LOX IMVI
NCI/ADR-RES = test system: NCI/ADR-RES
SN12C = test system: SN12C
TK-10 = test system: TK-10
HCT-116 = test system: HCT-116
OVCAR-4 = test system: OVCAR-4
UACC-257 = test system: UACC-257
CCRF-CEM = test system: CCRF-CEM
ACHN = test system: ACHN
NCI-H522 = test system: NCI-H522
MDA-N = test system: MDA-N
CAKI-1 = test system: CAKI-1
MOLT-4 = test system: MOLT-4
HT-29 = test system: HT-29
HL-60 = test system: HL-60
SF-295 = test system: SF-295
RXF 393 = test system: RXF 393

SMILES	GI50 (UO-31)	GI50 (HCT-15) [µM]	GI50 (LOX IMVI)	GI50 (NCI/ADR-RES)	GI50 (SN12C)	GI50 (TK-10)	GI50 (HCT-116)	GI50 (OVCAR-4)	GI50 (UACC-257)	GI50 (CCRF-CEM)	GI50 (ACHN)	GI50 (NCI-H522)	GI50 (MDA-N)	GI50 (CAKI-1)	GI50 (MOLT-4)	GI50 (HT-29)	GI50 (HL-60)	GI50 (SF-295)	GI50 (RXF 393)
CSc1cccc(NC(=O)OC2CCCCCCCCCCC2)c1	7.91 µM (inactive)	28.8	18 µM (inactive)	21.4 µM (inactive)	15.5 µM (inactive)	26.9 µM (inactive)	15.1 µM (inactive)	10.4 µM (inactive)	16 µM (inactive)	16.4 µM (inactive)	27.7 µM (inactive)	13.2 µM (inactive)	21 µM (inactive)	17.6 µM (inactive)	23.5 µM (inactive)	16.6 µM (inactive)	14.3 µM (inactive)	11.9 µM (inactive)	18.8 µM (inactive)
CCCNC(=O)c1cc(OC)c(OC)cc1NC(=O)C12CC3CC(CC(C3)C1)C2	16.6 µM (inactive)	17	19.5 µM (inactive)	19 µM (inactive)	16.1 µM (inactive)	16.6 µM (inactive)	16.8 µM (inactive)	17.6 µM (inactive)	17.6 µM (inactive)	28.2 µM (inactive)	14.5 µM (inactive)	12.3 µM (inactive)	16.7 µM (inactive)	19.8 µM (inactive)	29.9 µM (inactive)	18.2 µM (inactive)	32.7 µM (inactive)	18.7 µM (inactive)	6.81 µM (inactive)
C[C@H]1[C@H](C)CC[C@]2(C(=O)OC3OC(CO)C(O)C(O)C3O)CC[C@]3(C)C(=CC[C@@H]4[C@@]5(C)C[C@@H](O)[C@@H]6OC(=O)c7cc(O)c(O)c(O)c7-c7c(cc(O)c(O)c7O)C(=O)OC[C@]6(CO)[C@@H]5CC[C@]43C)[C@H]12 (stereo not given in full)	56.9 µM (inactive)	28.1	12.6 µM (inactive)	> 62.4 µM (inactive)	30.5 µM (inactive)	> 100 µM (inactive)	41.2 µM (inactive)	14.7 µM (inactive)	> 78.3 µM (inactive)	20.8 µM (inactive)	> 73.3 µM (inactive)	13.6 µM (inactive)	21.5 µM (inactive)	17 µM (inactive)	17.7 µM (inactive)	19.1 µM (inactive)	25.9 µM (inactive)	29.2 µM (inactive)	> 91.4 µM (inactive)
CN(C)c1cccc2c1C(=O)C=CC21c2ccc(N(C)C)c3c(N(C)C)ccc(c23)C(c2ccccc2)C1c1ccccc1 (stereo not given)	4.8 µM (inactive)	27.3	15.2 µM (inactive)	22.6 µM (inactive)	10.8 µM (inactive)	12 µM (inactive)	21.3 µM (inactive)	3.85 µM (inactive)	12.6 µM (inactive)	4.86 µM (inactive)	13.1 µM (inactive)	21.3 µM (inactive)	16.4 µM (inactive)	1.64 µM (inactive)	0.592 µM (active)	14.9 µM (inactive)	3.34 µM (inactive)	14.5 µM (inactive)	13 µM (inactive)
CCCCCCCCC/C=C1/CC(CO)(COC(=O)CC(C(C)C)C(C)C)OC1=O (stereo not given)	2.44 µM (inactive)	14.4	11.5 µM (inactive)	14.1 µM (inactive)	2.42 µM (inactive)	2.89 µM (inactive)	13.2 µM (inactive)	14.7 µM (inactive)	12.9 µM (inactive)	5.35 µM (inactive)	3.17 µM (inactive)	10.4 µM (inactive)	0.21 µM (active)	4.18 µM (inactive)	1.16 µM (inactive)	16.3 µM (inactive)	0.271 µM (active)	0.675 µM (active)	13.9 µM (inactive)
